Measured values published in patent US7863269B2, “Imino-imidazo-pyridine derivatives having antithrombotic activity” (sanofi-aventis, priority 2006, dated 2011).

Biological target: T1, PAR1 (Homo sapiens, UniProt P25116)
T1 construct: endogenous in cells; host or cells: washed platelets from platelet-rich plasma of healthy volunteers
T1 sequence (P25116 22-425): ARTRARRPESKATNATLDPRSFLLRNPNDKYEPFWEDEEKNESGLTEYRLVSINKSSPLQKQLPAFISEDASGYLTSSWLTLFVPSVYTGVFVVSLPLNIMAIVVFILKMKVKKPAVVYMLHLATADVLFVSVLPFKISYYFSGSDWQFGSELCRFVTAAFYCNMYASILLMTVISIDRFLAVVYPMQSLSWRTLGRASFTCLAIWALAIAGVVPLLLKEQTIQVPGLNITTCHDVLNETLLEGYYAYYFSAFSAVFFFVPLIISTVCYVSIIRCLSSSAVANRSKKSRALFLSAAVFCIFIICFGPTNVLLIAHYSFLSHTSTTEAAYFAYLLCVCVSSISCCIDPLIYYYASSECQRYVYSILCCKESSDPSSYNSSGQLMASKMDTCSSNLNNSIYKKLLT
Assay: Inhibition of PAR1-mediated platelet aggregation induced by TRAP (96-well format)
Assay type: cell-based
Conditions: washed platelets from blood of healthy volunteers; agonist TRAP (thrombin-receptor activating peptide) solution 70-100 μM; AUC at 650 nm, 37° C., 20 minutes
Description: PAR 1 determination method: Inhibition of PAR1-mediated platelet aggregation The pharmacological testing of the substances was carried out in the platelet aggregation induced by TRAP (thrombin-receptor activating peptide) in a 96-well format. To this end, blood from healthy volunteers was taken in 20 ml syringes into which 2 ml of 3.13% strength sodium citrate solution was initially introduced. After a 20-minute centrifugation at 150×g, the platelet-rich plasma (PRP) was separated off and treated with 1 μl of PGE1 solution (500 μg/ml in ethanol)/ml of PRP. After incubation at RT for 5 minutes, this was centrifuged at 120×g for 15 minutes in order to remove the leucocytes. The leucocyte-free PRP was transferred to 15 ml PP tubes in 5 ml portions and centrifuged off at 360×g for 15 minutes in order to pellet the platelets. Subsequently, the plasma was decanted and the platelet sediment from 5 ml of PRP was resuspended in 1 ml of Tyrode (120 mM NaCl, 2.6 mM KCl, 12 mM NaHCO3, 0.39 mM NaH2PO4×H2O, 10 mM HEPES, 0.35% BSA, 5.5 mM glucose, pH 7.4) and adjusted with Tyrode to a platelet count of 3×10^5/microliter (μl). 13 ml of this cell suspension were then treated with 866 μl of 10 mM CaCl2 solution and 120 μl thereof per well were pipetted to a 96-well plate, in which 15 μl of the substance to be tested were initially introduced. After incubation in the dark at RT for 30 minutes, 15 μl of a TRAP solution (70-100 μM) were added as the agonist and kinetics were recorded with shaking at 37° C. for 20 minutes in a SpectraMax 340 at 650 nm. The areas under the curves of negative control (Tyrode/DMSO) and positive control (15 μl of agonist/DMSO) were calculated and the difference was defined as the 100% value. The substances to be tested were pipetted as a dilution series in a duplicate determination, likewise the AUC of each substance concentration was determined and the % inhibition of the AUC against the control was calculated. By means of the % inhibition, the IC50 was calculated with the aid of a nonlinear regression analysis according to the 4 parameter equation.

Row | IC50 [nM] | Structure (SMILES)
1 | 70 | CCOC(=O)c1cc(OC)n2c(=N)n(CC(=O)c3cc(N4CCOCC4)c(OC)c(C(C)(C)C)c3)cc2c1 [Example 20, Ethyl 2-[2-(3-tert-butyl-4-methoxy-5-morpholin-4-ylphenyl)-2-oxoethyl]-3-imino-5-methoxy-2,3-dihydroimidazo[1,5-a]pyridine-7-carboxylate]
2 | 20 | CCOc1cc2cn(CC(=O)c3cc4c(c(C(C)(C)C)c3)OCCN4C)c(=N)n2cc1C(=O)NC [Example 12, 2-[2-(8-tert-Butyl-4-methyl-3,4-dihydro-2H-benzo[1,4]oxazin-6-yl)-2-oxoethyl]-7-ethoxy-3-imino-2,3-dihydroimidazo[1,5-a]pyridine-6-carboxylic acid methylamide]
3 | 900 | CCOc1cc2cn(CC(=O)c3cc(N4CCOCC4)c(OC)c(C(C)(C)C)c3)c(=N)n2cc1C(=O)NC [Example 19, 2-[2-(3-tert-Butyl-4-methoxy-5-morpholin-4-ylphenyl)-2-oxoethyl]-7-ethoxy-3-imino-2,3-dihydroimidazo[1,5-a]pyridine-6-carboxylic acid Methylamide]
4 | 9500 | CCOc1ccc2n(c1=O)C(=N)N(CC(=O)c1cc(N3CCOCC3)c(OC)c(C(C)(C)C)c1)C2 [Example 18, 2-[2-(3-tert-Butyl-4-methoxy-5-morpholin-4-ylphenyl)-2-oxoethyl]-6-ethoxy-3-imino-2,3-dihydro-1H-imidazo[1,5-a]pyridin-5-one]

More lines, now with the values behind:

Row | Structure (SMILES) | IC50 [nM]
5 | CC(C)(C)c1cc(C(=O)Cn2cc3cc(C(F)(F)F)ccn3c2=N)cc(C(C)(C)C)c1O [Example 6b, 1-(3,5-Di-tert-butyl-4-hydroxyphenyl)-2-(3-imino-7-trifluoromethylimidazo[1,5-a]pyridin-2-yl)ethanone] | 730
6 | COC(=O)c1ccc2cn(CC(=O)c3cc(N4CCOCC4)c(OC)c(C(C)(C)C)c3)c(=N)n2c1 [Example 8, Methyl 2-[2-(3-tert-butyl-4-methoxy-5-morpholin-4-ylphenyl)-2-oxoethyl]-3-imino-2,3-dihydroimidazo[1,5-a]pyridine-6-carboxylate] | 510
7 | CC(C)(C)c1cc(C(=O)Cn2c(C3CC3)c3ccccn3c2=N)cc(C(C)(C)C)c1O [Example 3, 2-(1-Cyclopropyl-3-iminoimidazo[1,5-a]pyridin-2-yl)-1-(3,5-di-tert-butyl-4-hydroxyphenyl)ethanone] | 850
8 | N=c1n(CC(=O)c2cccc(S(F)(F)(F)(F)F)c2)cc2ccccn12 [Example 2, 2-(3-Iminoimidazo[1,5-a]pyridin-2-yl)-1-(3-pentafluorosulfanylphenyl)ethanone] | 13000
